The results in this text go back to patent US20240115557A1, “INHIBITORS OF RNA-GUIDED NUCLEASES AND USES THEREOF” (The Brigham and Women's Hospital, Inc., priority 2022, published 2024).

The target in experiment [1] is T1, SpCas9 (Streptococcus pyogenes serotype M1, UniProt Q99ZW2). Kind of experiment: eGFP disruption assay, SpCas9, U2OS.eGFP.PEST cells. The following applies: for % GFP+, Rep 1 / Z score Rep1 / Normalized Z rep1: replicate 1; for % GFP+, Rep 2 / Z socre Rep2 / Normalized Z rep2: replicate 2; for SpCas9 eGFP disruption Rep1: replicate 1, raw readout; for SpCas9 eGFP disruption Rep1 / SpCas9 eGFP disruption Rep2: Cas9 = lower control, Ctrl = upper control; for Normalized Z rep1 / Normalized Z rep2: lower control about 0, upper control about 1; for SpCas9 eGFP disruption Rep2: replicate 2, raw readout. Format: cell-based. The essentials: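 U2OS.eGFP.PEST cells nucleofected with 300 ng SpCas9 plasmid plus 30 ng eGFP-targeting gRNA plasmid, or with SpCas9 RNP (10 pmol protein, 12 pmol gRNA). Cells then incubated 24 h with compound (20 μM in screening). Inhibition is read as rescue of eGFP fluorescence in paraformaldehyde-fixed, nuclear-stained cells.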

In experiment [2] the target is T1, SpCas9. Kind of experiment: HiBiT knock-in assay, SpCas9, HEK293T cells. Format: cell-based. The text has this:
Primary and secondary screening. The primary screen assayed a selection of unique chemical scaffolds derived from commercially available compounds and known bioactive molecular libraries (Table 7). Auto-fluorescent compounds were removed by a counter screen. Overall, the CAA was used to assay 122,409 small molecules with over 2,500 unique chemical scaffolds (FIG. 64F, Table 7). Of these compounds, 547 were selected as hits (Z score >3 in both replicates) for testing in orthogonal cell-based secondary assays. Hits were tested in duplicate in an eGFP disruption assay, wherein U2OS.eGFP.PEST cells^33 transfected with SpCas9 plasmid and eGFP-targeting gRNA plasmid were incubated with 20 μM of the compounds. In this assay, any compound that inhibited SpCas9 would rescue the loss of eGFP fluorescence. Here, toxic and auto-fluorescent compounds with a high GFP signal in cells were removed as false positives. […] Next, Applicants tested the 15 compounds in a luminescence-based gain-of-signal HiBiT knock-in assay, which involves SpCas9-mediated homology-directed tagging of GAPDH with a short peptide that luminesces upon complementation with a subunit derived from nanoluciferase.^34 Complementarily, the eGFP-disruption assay is fluorescence-based and involves error-prone DNA repair. As a counter-screen to remove false positives caused by cell death (viability <80%), the cell viability was measured after incubation.
Approximately 400,000 HEK293T cells were nucleofected with 400 ng of SpCas9 plasmid, 40 ng of GAPDH-targeting gRNA plasmid, and 40 pmol of single-strand oligodeoxynucleotide (ssODN) using SF Cell Line 4D-Nucleofector X Kit (Lonza) following the pulse program of DS-150. For RNP-based genome editing, 10 pmol of Cas9 and 12 pmol of gRNA were mixed and incubated for 5 min. Then, 20 pmol of ssODN was added. Cells were nucleofected with the resulting mixture using the same pulse program. Cells were then transferred to a 96-well plate at the density of 35,000 cells per well, and incubated with indicated amount of compounds for 24 h. Cell viability was measured using PrestoBlue reagent (Thermo) with a SpectraMax M5 (Molecular Devices) at the excitation and emission wavelength of 544 nm and 590 nm, respectively. Next, luminescence measurement was performed using the Nano-Glo HiBiT Lytic Detection System (Promega) according to the manufacturer's protocol with an EnVision Multilabel Plate Reader (PerkinElmer) at the integration time of 0.5 s per well. The resulting luminescence signals were normalized based on the cell viability.^34
(In general: HiBiT is a short tag that completes a luciferase, so light tracks the accessible tagged protein.)

In experiment [3] the target is T1, SpCas9. Kind of experiment: Strand displacement assay (SDA) / cumulative activity assay (CAA), SpCas9 primary screen. Format: biochemical. The following applies: Primary Screen (150 min); for Normalized Z score 1: replicate 1; for Normalized Z score 2: replicate 2. The essentials: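 SpCas9:gRNA RNP in 20 mM Tris-HCl pH 7.5, 100 mM KCl, 5 mM MgCl2 was used at 10 nM (2× stock) with Alexa Fluor 647-labelled substrate and excess quencher strand (1 nM and 5 nM, 2× stocks). Fluorescence was read after 2.5 h at 37 °C, where cleavage lets the quencher strand anneal.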

In the next experiment the target is FnCpf1 (Francisella tularensis subsp. novicida, UniProt A0Q7Q2). Format: biochemical. The conditions noted are these: 20 uM.
The subject of experiment [4] is restriction endonuclease Nde1. The experiment in a line: Gel cleavage specificity assay, Nde1. The following applies: 20 uM. Format: biochemical.
For experiment [5], the target named is T2, SpCas9:gRNA complex (Streptococcus pyogenes serotype M1, UniProt Q99ZW2). Kind of experiment: biochemical.
For experiment [6], the target named is T2, SpCas9:gRNA complex. The following applies: control without BRD7586 scaffold.

T1 sequence (Q99ZW2 whole entry): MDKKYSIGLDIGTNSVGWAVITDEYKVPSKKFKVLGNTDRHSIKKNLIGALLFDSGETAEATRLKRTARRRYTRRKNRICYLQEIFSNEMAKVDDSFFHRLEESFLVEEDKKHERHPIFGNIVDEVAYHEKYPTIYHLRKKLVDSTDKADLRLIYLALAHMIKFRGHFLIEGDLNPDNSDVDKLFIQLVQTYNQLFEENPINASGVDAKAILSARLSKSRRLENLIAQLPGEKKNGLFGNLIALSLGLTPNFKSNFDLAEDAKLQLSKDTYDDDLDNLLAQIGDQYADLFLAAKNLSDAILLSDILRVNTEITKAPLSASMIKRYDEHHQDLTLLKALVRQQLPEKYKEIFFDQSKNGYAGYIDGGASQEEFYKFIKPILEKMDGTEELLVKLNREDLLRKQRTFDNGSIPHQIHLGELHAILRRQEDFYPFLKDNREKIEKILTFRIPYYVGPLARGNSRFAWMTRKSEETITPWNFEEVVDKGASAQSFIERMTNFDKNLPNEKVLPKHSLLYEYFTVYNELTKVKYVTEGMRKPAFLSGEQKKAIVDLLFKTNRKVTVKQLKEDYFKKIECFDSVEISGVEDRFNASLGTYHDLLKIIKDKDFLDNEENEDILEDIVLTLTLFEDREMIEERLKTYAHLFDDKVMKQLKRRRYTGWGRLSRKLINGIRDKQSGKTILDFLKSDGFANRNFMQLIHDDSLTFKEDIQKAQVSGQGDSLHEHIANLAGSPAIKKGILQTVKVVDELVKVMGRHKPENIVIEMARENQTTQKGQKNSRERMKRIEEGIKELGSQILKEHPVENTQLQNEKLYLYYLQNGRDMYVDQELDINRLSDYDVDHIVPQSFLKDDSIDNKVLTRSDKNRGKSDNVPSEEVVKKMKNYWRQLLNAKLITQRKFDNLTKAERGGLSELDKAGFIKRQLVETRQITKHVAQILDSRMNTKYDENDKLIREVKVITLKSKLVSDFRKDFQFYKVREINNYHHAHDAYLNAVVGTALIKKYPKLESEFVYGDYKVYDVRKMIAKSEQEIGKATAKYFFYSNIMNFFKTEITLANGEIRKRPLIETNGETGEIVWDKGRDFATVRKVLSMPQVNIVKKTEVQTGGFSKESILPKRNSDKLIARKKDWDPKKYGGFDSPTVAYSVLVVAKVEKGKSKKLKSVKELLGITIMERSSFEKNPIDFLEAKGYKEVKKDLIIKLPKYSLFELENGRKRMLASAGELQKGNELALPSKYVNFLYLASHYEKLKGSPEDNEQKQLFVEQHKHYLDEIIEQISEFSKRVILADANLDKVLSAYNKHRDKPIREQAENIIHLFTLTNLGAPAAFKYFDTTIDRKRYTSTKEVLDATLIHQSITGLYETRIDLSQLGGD
Chain of FnCpf1 (A0Q7Q2 whole entry, looked up): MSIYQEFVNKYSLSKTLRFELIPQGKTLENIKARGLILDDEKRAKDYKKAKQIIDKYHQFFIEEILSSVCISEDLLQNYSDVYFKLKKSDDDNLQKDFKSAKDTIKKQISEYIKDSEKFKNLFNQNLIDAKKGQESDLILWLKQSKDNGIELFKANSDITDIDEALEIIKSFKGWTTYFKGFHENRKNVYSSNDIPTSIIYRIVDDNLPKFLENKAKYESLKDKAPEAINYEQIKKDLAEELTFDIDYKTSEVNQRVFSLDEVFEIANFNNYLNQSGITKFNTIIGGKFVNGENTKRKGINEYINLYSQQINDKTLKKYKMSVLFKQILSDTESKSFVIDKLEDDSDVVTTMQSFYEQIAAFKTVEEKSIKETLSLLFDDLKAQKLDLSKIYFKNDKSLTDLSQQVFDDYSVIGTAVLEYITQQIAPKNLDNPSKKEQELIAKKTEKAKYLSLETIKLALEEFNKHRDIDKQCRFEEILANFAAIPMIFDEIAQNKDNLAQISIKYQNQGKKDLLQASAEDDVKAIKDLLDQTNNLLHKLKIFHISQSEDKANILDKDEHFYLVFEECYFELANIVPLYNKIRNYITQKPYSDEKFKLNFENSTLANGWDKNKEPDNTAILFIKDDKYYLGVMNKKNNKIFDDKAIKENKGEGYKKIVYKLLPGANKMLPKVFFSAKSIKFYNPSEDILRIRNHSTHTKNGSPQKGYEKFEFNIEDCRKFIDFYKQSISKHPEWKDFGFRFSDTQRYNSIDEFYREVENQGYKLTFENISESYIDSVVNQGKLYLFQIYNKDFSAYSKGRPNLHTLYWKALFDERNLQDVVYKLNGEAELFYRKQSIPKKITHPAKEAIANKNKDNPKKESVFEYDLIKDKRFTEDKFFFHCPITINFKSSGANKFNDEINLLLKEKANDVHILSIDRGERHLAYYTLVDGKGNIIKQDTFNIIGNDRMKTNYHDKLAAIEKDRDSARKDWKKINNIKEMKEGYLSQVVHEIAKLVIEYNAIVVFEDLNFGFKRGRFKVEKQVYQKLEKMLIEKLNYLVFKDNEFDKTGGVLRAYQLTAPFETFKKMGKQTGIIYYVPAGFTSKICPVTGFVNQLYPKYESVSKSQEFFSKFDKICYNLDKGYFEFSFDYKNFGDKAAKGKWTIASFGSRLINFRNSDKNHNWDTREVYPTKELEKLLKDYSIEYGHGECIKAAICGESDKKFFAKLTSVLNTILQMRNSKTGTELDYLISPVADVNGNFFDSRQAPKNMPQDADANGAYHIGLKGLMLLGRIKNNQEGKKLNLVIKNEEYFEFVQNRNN
T2 sequence (Q99ZW2 whole entry, one chain of several): as the sequence (Q99ZW2 whole entry) above

As to `O=C(CCS(=O)(=O)c1ccc(Cl)cc1)Nc1nc(-c2ccncc2)cs1` [Compound G786-1325], on SpCas9 [1], the eGFP disruption-% inhibition is on record as 56.65%, the “Z score Rep1” value is 5.65, the “SpCas9 eGFP disruption Rep1” value came to 86.012 and the “Normalized Z rep1” value amounted to 0.54. On SpCas9 [1], the “Z socre Rep2” value is recorded as 12.44, the “SpCas9 eGFP disruption Rep2” value is reported as 86.243 and the “Normalized Z rep2” value is 0.54. In addition, at SpCas9 [1] (eGFP assay), the “% GFP+, Rep 1” value is listed as 86.01%; the “Z score Rep1” value is reported as 5.65; the “% GFP+, Rep 2” value is reported as 86.24%. Further, the Hibit assay-% inhibition at SpCas9 [2] turned out to be 97.09%. Besides, at SpCas9 [3], the “Average Normalized Z score” value is listed as 0.04, the “avg z score primary” value came out at 4.35, the “Normalized Z score 1” value was determined as 0.05 and the “Normalized Z score 2” value is given as 0.04.

On to `Cc1ccccc1C(=O)Nc1nc2ccc(S(N)(=O)=O)cc2s1` [Compound G786-1547], for which, on SpCas9 [1], the eGFP disruption-% inhibition is reported as 42.41%, the “Z score Rep1” value was 3.88, the “SpCas9 eGFP disruption Rep1” value was determined as 82.802 and the “Normalized Z rep1” value is given as 0.37. In addition, at SpCas9 [1], the “Z socre Rep2” value turned out to be 9.85, the “SpCas9 eGFP disruption Rep2” value is 84.086 and the “Normalized Z rep2” value is on record as 0.43. Also, at SpCas9 [1] (eGFP assay), the “% GFP+, Rep 1” value is recorded as 82.8%; the “Z score Rep1” value came to 3.88; the “% GFP+, Rep 2” value was determined as 84.09%. Besides, the Hibit assay-% inhibition on SpCas9 [2] amounted to 4.3%. Besides, on SpCas9 [3], the “Average Normalized Z score” value came to 0.04, the “avg z score primary” value is 3.81, the “Normalized Z score 1” value was 0.04 and the “Normalized Z score 2” value is 0.04.

For the compound `CCc1cccc(-n2nnnc2N2CCN(C(=O)Nc3cccc(C)c3)CC2)c1` [Compound L378-0350], at FnCpf1, the “Activity against FnCpf1 in gel cleavage assay” value (shortened to “Activity against FnCpf1”) is “active in Fncpf1”. In addition, the “Activity against Nde1 in gel cleavage assay” value (“Activity against Nde1” for short) in experiment [4] is on record as “not Nde1”.

`CCc1cccc(-n2nnnc2N2CCN(C(=O)Nc3ccc(C)cc3C)CC2)c1` [Compound L378-0355]: the “Activity against FnCpf1” value on FnCpf1 is on record as “active in Fncpf1”. In experiment [4], the “Activity against Nde1” value is “not Nde1”.

In the case of `CCc1cccc(-n2nnnc2N2CCN(C(=O)Nc3ccc(Br)c(C)c3)CC2)c1` [Compound L378-0372], the “Activity against FnCpf1” value on FnCpf1 is recorded as “active in Fncpf1”. Also, in experiment [4], the “Activity against Nde1” value is recorded as “not Nde1”.

As to `CCN1C(=O)c2cccc3cccc1c23` [Compound T0503-6911], on SpCas9 [1], the eGFP disruption-% inhibition is 26.33%, the “Z score Rep1” value worked out at 3.76, the “SpCas9 eGFP disruption Rep1” value is on record as 67.522 and the “Normalized Z rep1” value was determined as 0.26. Also, on SpCas9 [1], the “Z socre Rep2” value came to 6.09, the “SpCas9 eGFP disruption Rep2” value was determined as 66.588 and the “Normalized Z rep2” value came out at 0.29. For the same compound, at SpCas9 [1] (eGFP assay), the “% GFP+, Rep 1” value came out at 67.52%; the “Z score Rep1” value came out at 3.76; the “% GFP+, Rep 2” value stood at 66.59%. Also, the Hibit assay-% inhibition at SpCas9 [2] amounted to 18.06%. Besides, at SpCas9 [3], the “avg z score primary” value was found to be 6.86, the “Normalized Z score 1” value was found to be 0.06 and the “Normalized Z score 2” value is 0.10. Also, the “Average Normalized Z score” value at SpCas9 [3] (average of replicates) is 0.08.

Regarding `NC1=C(c2nc3ccccc3s2)C(=O)CN1N=Cc1ccc(-c2ccc(S(=O)(=O)Nc3ncccn3)cc2)o1` [Compound T5371551], on SpCas9 [1], the eGFP disruption-% inhibition is recorded as 22.88%, the “Z score Rep1” value is listed as 2.50, the “SpCas9 eGFP disruption Rep1” value was 64.278 and the “Normalized Z rep1” value turned out to be 0.17. At SpCas9 [1], the “Z socre Rep2” value was 11.57, the “SpCas9 eGFP disruption Rep2” value turned out to be 76.754 and the “Normalized Z rep2” value was determined as 0.56. Also, on SpCas9 [1] (eGFP assay), the “% GFP+, Rep 1” value was determined as 64.28%; the “Z score Rep1” value worked out at 2.50; the “% GFP+, Rep 2” value was 76.75%. In addition, the Hibit assay-% inhibition on SpCas9 [2] is listed as −12.66%. At SpCas9 [3], the “avg z score primary” value is given as 9.04, the “Normalized Z score 1” value is 0.61 and the “Normalized Z score 2” value is reported as 0.58. Besides, on SpCas9 [3] (average of replicates), the “Average Normalized Z score” value worked out at 0.60.

With `Cc1nc2ccccc2c(C)c1CC(=O)N1CCN(c2ccc(O)cc2)CC1` [Compound T5461482], at SpCas9 [1], the eGFP disruption-% inhibition was found to be 24.48%, the “Z score Rep1” value stood at 3.50, the “SpCas9 eGFP disruption Rep1” value came out at 66.842 and the “Normalized Z rep1” value came to 0.24. On SpCas9 [1], the “Z socre Rep2” value was 6.37, the “SpCas9 eGFP disruption Rep2” value is recorded as 67.113 and the “Normalized Z rep2” value worked out at 0.31. At SpCas9 [1] (eGFP assay), the “% GFP+, Rep 1” value came out at 66.84%; the “Z score Rep1” value is on record as 3.50; the “% GFP+, Rep 2” value is 67.11%. The Hibit assay-% inhibition on SpCas9 [2] was 36.6%. At SpCas9 [3], the “avg z score primary” value is recorded as 3.23, the “Normalized Z score 1” value came out at 0.09 and the “Normalized Z score 2” value came to 0.10. For the same compound, on SpCas9 [3] (average of replicates), the “Average Normalized Z score” value worked out at 0.10.

`O=C(CSc1nccn1-c1cccc(F)c1)N1CCN(c2ccc(O)cc2)CC1` [Compound T5535170]: on SpCas9 [1], the eGFP disruption-% inhibition is 27.53%, the “Z score Rep1” value is listed as 3.93, the “SpCas9 eGFP disruption Rep1” value is listed as 67.964 and the “Normalized Z rep1” value came to 0.28. Also, at SpCas9 [1], the “Z socre Rep2” value was determined as 5.41, the “SpCas9 eGFP disruption Rep2” value turned out to be 65.339 and the “Normalized Z rep2” value was 0.26. For the same compound, on SpCas9 [1] (eGFP assay), the “% GFP+, Rep 1” value is on record as 67.96%; the “Z score Rep1” value was 3.93; the “% GFP+, Rep 2” value was determined as 65.34%. Moreover, the Hibit assay-% inhibition at SpCas9 [2] is reported as 68.25%. Also, at SpCas9 [3], the “avg z score primary” value came to 4.37, the “Normalized Z score 1” value is on record as 0.28 and the “Normalized Z score 2” value is on record as 0.33. The “Average Normalized Z score” value at SpCas9 [3] (average of replicates) stood at 0.31.

Consider `O=C(CCCCC1SC[C@H]2NC(=O)N[C@@H]12)NCCOCCOCCOCCC(=O)NCCOc1ccc(S(=O)(=O)CCC(=O)Nc2nc(-c3ccncc3)cs2)cc1` (some centres unmarked) [biotin-BRD7586], for which binding on SpCas9:gRNA complex [5] was characterised by a dissociation constant (Kd) of 520 nM.

On to `[N-]=[N+]=NCCOCCOCCOCCNC(=O)CCCC[C@@H]1SC[C@@H]2NC(=O)N[C@@H]21` [biotin-PEG3-azide], for which the “Binding in BLI” value at SpCas9:gRNA complex [6] was “No detectable binding”.
